From PubChem BioAssay AID1259408 (Genetic Toxicology Data Bank (GENE-TOX), 2018)
Active and inactive are the calls of the source. The rule behind the calls is not given here.

Tested on: GENE-TOX genotoxicity assays, various organisms and cells
Experiment: GENE-TOX mutagenicity studies
Conditions: for call: Assay Type: In vivo carcinogenicity studies
[1] = Species/Cell Type: Drosophila melanogaster, Assay Type: Sex-linked recessive lethal gene mutation, Assay Code: SRL+, Evaluation Type: Evaluation A (Pre-1980)
[2] = Species/Cell Type: Human lymphocytes or leukocytes, Assay Type: Chromosome aberrations in vitro, Assay Code: CY7-, Evaluation Type: Evaluation A (Pre-1980)
[3] = Species/Cell Type: Human lymphocytes or leukocytes, Assay Type: Chromosome aberrations in vivo, Assay Code: CY8T, Evaluation Type: Evaluation A (Pre-1980)
[4] = Species/Cell Type: Human lymphocytes, Assay Type: Sister-chromatid exchange (SCE) in vitro, Assay Code: SCLT, Evaluation Type: Evaluation B (Post-1980)
[5] = Species/Cell Type: Human, Assay Type: Sister-chromatid exchange (SCE) in vitro, Assay Code: SC1T, Evaluation Type: Evaluation B (Post-1980)
[6] = Species/Cell Type: Drosophila melanogaster, Assay Type: Sex-linked recessive lethal gene mutation, Assay Code: SRLT, Evaluation Type: Evaluation A (Pre-1980)
[7] = Species/Cell Type: Saccharomyces cerevisiae, Assay Type: Mitotic recombination or gene conversion, Assay Code: YEH-, Evaluation Type: Evaluation A (Pre-1980)
[8] = Species/Cell Type: Salmonella typhimurium (one or more of the five standard strains: TA98, TA100, TA1535, TA1537, and TA1538), Assay Type: Histidine reverse gene mutation, Ames assay, Assay Code: SAL+*, Activation: With metabolic activation, Evaluation Type: Evaluation A (Pre-1980)
[9] = Species/Cell Type: Salmonella typhimurium, Assay Type: Forward and reverse gene mutation, host-mediated assay, Assay Code: HMA+, Evaluation Type: Evaluation A (Pre-1980)
[10] = Species/Cell Type: Salmonella typhimurium (one or more of the five standard strains: TA98, TA100, TA1535, TA1537, and TA1538), Assay Type: Histidine reverse gene mutation, Ames assay, Assay Code: SALT, Evaluation Type: Evaluation A (Pre-1980)

## CCN(CC)C(=O)[C@@H]1C=C2c3cccc4[nH]cc(c34)C[C@H]2N(C)C1
Species/Cell Type: Allium cepa, Assay Type: Chromosome aberrations, Assay Code: ALC+, Evaluation Type: Evaluation A (Pre-1980)
  mutagenic call: active; positive
Species/Cell Type: Arabidopsis species, Assay Type: Gene mutation, Assay Code: ARM-, Evaluation Type: Evaluation A (Pre-1980)
  mutagenic call: inactive; negative
Species/Cell Type: Drosophila melanogaster, Assay Type: Aneuploidy, partial sex chromosome loss, chromosome aberrations, Assay Code: DAP+M, Evaluation Type: Evaluation A (Pre-1980)
  mutagenic call: active; positive
Species/Cell Type: Drosophila melanogaster, Assay Type: Aneuploidy, sex chromosome gain, chromosome aberrations, Assay Code: DAG+M, Evaluation Type: Evaluation A (Pre-1980)
  mutagenic call: active; positive
Species/Cell Type: Drosophila melanogaster, Assay Type: Aneuploidy, whole sex chromosome loss, chromosome aberrations, Assay Code: DAC+M, Evaluation Type: Evaluation A (Pre-1980)
  mutagenic call: active; positive
[1]
  mutagenic call: active; positive
Species/Cell Type: Drosophila melanogaster, Sex: Male, Assay Type: Heritable translocation test, chromosome aberrations, Assay Code: DHT-, Evaluation Type: Evaluation A (Pre-1980)
  mutagenic call: inactive; negative
Species/Cell Type: Hordeum vulgare (barley), Assay Type: Chromosome aberrations, Assay Code: HOC+, Evaluation Type: Evaluation A (Pre-1980)
  mutagenic call: active; positive
[2]
  mutagenic call: inactive; negative
[3]
  mutagenic call: no conclusion
Species/Cell Type: Mammalian germ cells, Sex: Male, Assay Type: Chromosome aberrations in vivo, Assay Code: CY9-, Evaluation Type: Evaluation A (Pre-1980)
  mutagenic call: inactive; negative
Species/Cell Type: Mammalian oocytes or early embryo, Assay Type: Chromosome aberrations in vivo, Assay Code: CYO-, Evaluation Type: Evaluation A (Pre-1980)
  mutagenic call: inactive; negative
Species/Cell Type: Mammalian polychromatic erythrocytes, Assay Type: Micronucleus test, chromosome aberrations, Assay Code: MNTT, Evaluation Type: Evaluation A (Pre-1980)
  mutagenic call: no conclusion
Species/Cell Type: Nonhuman, Assay Type: Chromosome aberrations in vitro, Assay Code: CY&-, Evaluation Type: Evaluation A (Pre-1980)
  mutagenic call: inactive; negative
Species/Cell Type: Rodents, Sex: Male, Assay Type: Dominant lethal test, Assay Code: DLT-, Evaluation Type: Evaluation A (Pre-1980)
  mutagenic call: inactive; negative
Species/Cell Type: Vicia faba, Assay Type: Chromosome aberrations, Assay Code: VIC-, Evaluation Type: Evaluation A (Pre-1980)
  mutagenic call: inactive; negative

## [Pb]
[2]
  mutagenic call: inactive; negative
[3]
  mutagenic call: no conclusion
Species/Cell Type: Human, Sex: Male, Assay Type: Sperm morphology, Assay Code: SPH+, Evaluation Type: Evaluation A (Pre-1980)
  mutagenic call: active; positive
Species/Cell Type: Nonhuman bone marrow, Assay Type: Chromosome aberrations, in vivo, Assay Code: CY#-, Evaluation Type: Evaluation A (Pre-1980)
  mutagenic call: inactive; negative
Species/Cell Type: Nonhuman, Assay Code: CCGT, Evaluation Type: Evaluation A (Pre-1980)
  call: no conclusion

## C/C=C/c1cn([C@H]2C[C@H](O)[C@@H](CO)O2)c(=O)[nH]c1=O
Species/Cell Type: Human, Assay Type: Sister-chromatid exchange (SCE) in vitro, Assay Code: SC1+D, Dose Response: With dose response, Evaluation Type: Evaluation B (Post-1980)
  mutagenic call: active; positive

## Cl[Te](Cl)(Cl)Cl
Species/Cell Type: Bacillus subtilis (H17 vs M45), Assay Type: Rec-assay, spot test, DNA effects (bacterial DNA repair), Assay Code: REW+, Evaluation Type: Evaluation A (Pre-1980)
  mutagenic call: active; positive

## NC(=O)N1C2=CC=CCC2=C(CO)c2ccccc21
[4]
  mutagenic call: no conclusion
[5]
  mutagenic call: no conclusion

## CNC(=O)Oc1cccc(C)c1
Species/Cell Type: Bacillus subtilis (H17 vs M45T), Assay Type: Rec-assay, spot test, DNA effects (bacterial DNA repair), Assay Code: REX-, Evaluation Type: Evaluation A (Pre-1980)
  mutagenic call: inactive; negative
Species/Cell Type: Escherichia coli WP2, Assay Type: Tryptophan reverse gene mutation, Assay Code: WP2-, Evaluation Type: Evaluation A (Pre-1980)
  mutagenic call: inactive; negative

## O=C[C@H](O)[C@@H](O)[C@H](O[C@@H]1O[C@H](CO)[C@H](O)[C@H](O)[C@H]1O)[C@H](O)CO
[4]
  mutagenic call: no conclusion
[5]
  mutagenic call: no conclusion
Species/Cell Type: Nonhuman, Assay Type: Sister-chromatid exchange (SCE) in vivo, Assay Code: SC3T, Evaluation Type: Evaluation B (Post-1980)
  mutagenic call: no conclusion

## c1ccc2cc3c(ccc4ccccc43)cc2c1
Species/Cell Type: Chinese hamster lung (V79) cells, Assay Type: Forward gene mutation at the HPRT or ouabain locus, Assay Code: V79+*, Activation: With metabolic activation, Evaluation Type: Evaluation A (Pre-1980)
  mutagenic call: active; positive
[6]
  mutagenic call: no conclusion
Species/Cell Type: Escherichia coli polA (W3119 vs P3478), Assay Type: Rec-assay, DNA effects (bacterial DNA repair), Assay Code: RE1T, Evaluation Type: Evaluation A (Pre-1980)
  mutagenic call: no conclusion
Species/Cell Type: Fischer rat embryo (RLV/1706) cells, Assay Type: Cell transformation, viral enhanced, Assay Code: CTR+, Evaluation Type: Evaluation A (Pre-1980)
  mutagenic call: active; positive
Species/Cell Type: Human diploid fibroblasts, Assay Type: Unscheduled DNA synthesis (UDS) in vitro, DNA effects, Assay Code: UDHT, Evaluation Type: Evaluation A (Pre-1980)
  mutagenic call: no conclusion
Species/Cell Type: Mouse (BALB/c-3T3) cells, Assay Type: Cell transformation, Assay Code: CTB-, Evaluation Type: Evaluation A (Pre-1980)
  mutagenic call: inactive; negative
Species/Cell Type: Mouse prostate cells, Assay Type: Cell transformation, Assay Code: CTM+, Evaluation Type: Evaluation A (Pre-1980)
  mutagenic call: active; positive
Species/Cell Type: Nonhuman, Assay Code: CCG+, Evaluation Type: Evaluation A (Pre-1980)
  call: active; positive
Species/Cell Type: Nonhuman, Assay Type: Sister-chromatid exchange (SCE) in vitro, Assay Code: SC2+, Evaluation Type: Evaluation B (Post-1980)
  mutagenic call: active; positive
Species/Cell Type: Nonhuman, Assay Type: Sister-chromatid exchange (SCE) in vivo, Assay Code: SC3+, Evaluation Type: Evaluation B (Post-1980)
  mutagenic call: active; positive
Species/Cell Type: Nonhuman, Assay Type: Sister-chromatid exchange (SCE) in vivo, Assay Code: SC3T, Evaluation Type: Evaluation A (Pre-1980)
  mutagenic call: no conclusion
Species/Cell Type: Rat primary hepatocytes, Assay Type: Unscheduled DNA synthesis (UDS) in vitro, DNA effects, Assay Code: UDP-, Evaluation Type: Evaluation A (Pre-1980)
  mutagenic call: inactive; negative
[7]
  mutagenic call: inactive; negative
[8]
  mutagenic call: active; positive
[9]
  mutagenic call: active; positive
Species/Cell Type: Syrian hamster embryo (SHE) cells, Assay Type: Cell transformation, clonal assay, Assay Code: CTC+, Evaluation Type: Evaluation A (Pre-1980)
  mutagenic call: active; positive

## Cn1c[n+](C)cc1[N+](=O)[O-]
[10]
  mutagenic call: no conclusion

## CCCCN(CC(C)=O)N=O
[8]
  mutagenic call: active; positive

## Clc1ccc(Oc2cc(Cl)c(Cl)cc2Cl)cc1
Species/Cell Type: Saccharomyces cerevisiae, Assay Type: Forward gene mutation, Assay Code: YEF-, Evaluation Type: Evaluation A (Pre-1980)
  mutagenic call: inactive; negative
Species/Cell Type: Saccharomyces cerevisiae, Assay Type: Mitotic recombination or gene conversion, Assay Code: YEC-, Evaluation Type: Evaluation A (Pre-1980)
  mutagenic call: inactive; negative
[7]
  mutagenic call: inactive; negative

## COC(=O)C1=CCCN(N=O)C1
[6]
  mutagenic call: no conclusion
[8]
  mutagenic call: active; positive

## CC(=O)Nc1nc(-c2csc(NC(C)=O)n2)cs1
[10]
  mutagenic call: no conclusion

## O=C1OC2(c3cc(Br)c(O)c(Br)c3Oc3c2cc(Br)c(O)c3Br)c2c(Cl)ccc(Cl)c21
Species/Cell Type: Bacillus subtilis (H17 vs M45), Assay Type: Rec-assay, spot test, DNA effects (bacterial DNA repair), Assay Code: REW-, Evaluation Type: Evaluation A (Pre-1980)
  mutagenic call: inactive; negative
Species/Cell Type: Bacillus subtilis (H17 vs M45T), Assay Type: Rec-assay, spot test, DNA effects (bacterial DNA repair), Assay Code: REX+, Evaluation Type: Evaluation A (Pre-1980)
  mutagenic call: active; positive

## Cc1ccc(O)c(C)c1
[4]
  mutagenic call: no conclusion

## O=[N+]([O-])c1cnc2ccccc2c1
Species/Cell Type: Neurospora crassa, Assay Type: Aneuploidy, chromosome aberrations, Assay Code: NEN-, Evaluation Type: Evaluation A (Pre-1980)
  mutagenic call: inactive; negative

## CN1CCN(N=O)CC1
Species/Cell Type: Chinese hamster lung (V79) cells, Assay Type: Forward gene mutation at the HPRT or ouabain locus, Assay Code: V79+, Evaluation Type: Evaluation A (Pre-1980)
  mutagenic call: active; positive
[1]
  mutagenic call: active; positive
[10]
  mutagenic call: no conclusion
[9]
  mutagenic call: active; positive

## CC1CCOS1(=O)=O (configuration not stated)
Species/Cell Type: Schizosaccharomyces pombe, Assay Type: Reverse gene mutation, Assay Code: YEZ+, Evaluation Type: Evaluation A (Pre-1980)
  mutagenic call: active; positive

## C/C=C/c1ccc(O)c(OC)c1
Species/Cell Type: Human lymphocytes, Assay Type: Sister-chromatid exchange (SCE) in vitro, Assay Code: SCL+, Evaluation Type: Evaluation B (Post-1980)
  mutagenic call: active; positive

## CN(C)c1ccc(N(C)C)c2c1C(=O)c1c(O)ccc(O)c1C2=O
Species/Cell Type: Salmonella typhimurium (one or more of the five standard strains: TA98, TA100, TA1535, TA1537, and TA1538), Assay Type: Histidine reverse gene mutation, Ames assay, Assay Code: SAL+, Evaluation Type: Evaluation A (Pre-1980)
  mutagenic call: active; positive

## C[n+]1c2ccccc2cc2cccc(N)c21
Species/Cell Type: Saccharomyces cerevisiae, Assay Type: Forward gene mutation, Assay Code: YEF+, Evaluation Type: Evaluation A (Pre-1980)
  mutagenic call: active; positive

## CC1OC1C (configuration not stated)
Species/Cell Type: Neurospora crassa, Assay Type: Reverse gene mutation, Assay Code: NER+, Evaluation Type: Evaluation A (Pre-1980)
  mutagenic call: active; positive
